# According to US6833262B1 (priority 1999, dated 2004):
# Where two headings read alike, the source gives them in different places. Peptide text beside a SMILES is read from it.
# Key:
# [1] = system: periodontain; assay: Activation of periodontain by reducing agents and additives; assay type: biochemical, Porphyromonas gingivalis; settings: for Periodontain activity achieved with reducing agent: reducing agent at 0.1 mM concentration
# [2] = system: periodontain; assay type: biochemical, Porphyromonas gingivalis
# [3] = molecular target: Kgp (Porphyromonas gingivalis, UniProt B2RLK2); settings: cited from earlier work
# [4] = system: Rgp's; settings: cited from earlier work
# [5] = system: Phe-Leu-Glu-pNA
# [6] = system: human α1-proteinase inhibitor
compound,measurement,setting,value
"O[C@H](CS)[C@H](O)CS (racemic) [DTT, dithiothreitol]",Periodontain activity achieved with reducing agent,[1],full activity
"CC(C)C[C@H](NC(=O)[C@H]1O[C@@H]1C(=O)O)C(=O)NCCCCN=C(N)N (relative stereo) [E-64, L-trans-epoxysuccinyl-leucylamide-(4-guanidino)-butane]",Inhibition of periodontain (in words),[2],readily inhibited
same,Percent Inhibition,[2]; 100 µM,100%
same,Inhibition of Kgp,[3],not inhibited
same,Inhibition of Rgp's,[4],only weakly inhibited
"O=c1oc(Cl)c(Cl)c2ccccc12 [Dichloroisocoumarin, 3,4 dichloroisocoumarin]",Inhibition of periodontain (in words),[2],readily inhibited
same,Percent Inhibition,[2],2%
NC(=O)CI [Idoacetamide],Inhibition of periodontain (in words),[2],readily inhibited
same,Percent Inhibition,[2],100%
CC(=O)N[C@@H](CC(C)C)C(=O)N[C@@H](CC(C)C)C(=O)N[C@H](C=O)CCCNC(=N)N [Leupeptin],Inhibition of periodontain (in words),[2],readily inhibited
same,Percent Inhibition,[2]; 50 µM,88%
"NC(N)=NCCC[C@H](NC(=O)[C@@H]1CCCN1C(=O)[C@H](N)Cc1ccccc1)C(=O)CCl [Phe—Pro—Arg chloromethyl ketone, Phe-Pro-Arg chloromethyl ketone]",Inhibition of periodontain (in words),[2],readily inhibited
same,Percent Inhibition,[2]; 10 µM,96%
"NCCCC[C@H](NC(=O)[C@H](Cc1ccccc1)NC(=O)OCc1ccccc1)C(=O)COC(=O)c1ccccc1 [Z-Phe—Lys benzoyloxy methyl ketone, Z-Phe-Lys benzoyloxy methyl ketone]",Inhibition of periodontain (in words),[2],readily inhibited
same,Percent Inhibition,[2]; 10 µM,99%
"N[C@@H](CS)C(=O)O [free cysteine, cysteine]",Periodontain activity achieved with reducing agent,[1],full activity
NCC(=O)NCC(=O)O [glycyl-glycine] (H-Gly-Gly-OH),Stimulation of periodontain activity,[1]; data not shown,did not stimulate activity
OCCS [β-mercaptoethanol],Periodontain activity achieved with reducing agent,[1],full activity
Tosyl-L-lysine chloromethyl ketone,Inhibition of periodontain (in words),[2],readily inhibited
same,Percent Inhibition,[2],91%
calcium ions,Stabilizing effect on periodontain,[1]; data not shown,did not have a stabilizing effect
ethylenediaminetetra-acetate [EDTA],Percent Inhibition,[2],0%
periodontain (mature native heterodimer purified from P. gingivalis HG66 culture fluid),hydrolysis of a synthetic pNA substrate,[5],no hydrolysis was detected
same,"Specific Activity (α1-PI inactivation assay, final TSK gel filtration step)",[6],368 units/mg
